Measured values reported in PubChem BioAssay (NCI).
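Cells were grown in 96-well plates and exposed to each compound for 48 hours at five concentrations; endpoints were interpolated linearly between bracketing concentrations, or set to the highest concentration if not reached. TGI: concentration producing complete growth inhibition.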

Key:
Test in all cases: inhibition of tumour cell growth, NCI panel, 48 h
786-0 renal = tested on: 786-0 renal
A498 renal = tested on: A498 renal
A549 NSCLC = tested on: A549 NSCLC
ACHN renal = tested on: ACHN renal
BT-549 breast = tested on: BT-549 breast
CAKI-1 renal = tested on: CAKI-1 renal
CCRF-CEM leukemia = tested on: CCRF-CEM leukemia
COLO 205 colon = tested on: COLO 205 colon
DU-145 prostate = tested on: DU-145 prostate
EKVX NSCLC = tested on: EKVX NSCLC
HCC-2998 colon = tested on: HCC-2998 colon
HCT-116 colon = tested on: HCT-116 colon
HCT-15 colon = tested on: HCT-15 colon
HOP-62 NSCLC = tested on: HOP-62 NSCLC
IGROV1 ovarian = tested on: IGROV1 ovarian
K-562 leukemia = tested on: K-562 leukemia
KM12 colon = tested on: KM12 colon
LOX IMVI melanoma = tested on: LOX IMVI melanoma
M14 melanoma = tested on: M14 melanoma
MALME-3M melanoma = tested on: MALME-3M melanoma
MCF7 breast = tested on: MCF7 breast
MDA-MB-231 breast = tested on: MDA-MB-231 breast
MDA-MB-435 = tested on: MDA-MB-435
MDA-N = tested on: MDA-N
MOLT-4 leukemia = tested on: MOLT-4 leukemia
NCI-H226 lung = tested on: NCI-H226 lung
NCI-H23 lung = tested on: NCI-H23 lung
NCI-H460 lung = tested on: NCI-H460 lung
NCI-H522 lung = tested on: NCI-H522 lung
NCI/ADR-RES ovarian = tested on: NCI/ADR-RES ovarian
OVCAR-4 ovarian = tested on: OVCAR-4 ovarian
OVCAR-5 ovarian = tested on: OVCAR-5 ovarian
OVCAR-8 ovarian = tested on: OVCAR-8 ovarian
PC-3 prostate = tested on: PC-3 prostate
RPMI-8226 leukemia = tested on: RPMI-8226 leukemia
RXF 393 renal = tested on: RXF 393 renal
SF-268 CNS = tested on: SF-268 CNS
SF-295 CNS = tested on: SF-295 CNS
SF-539 CNS = tested on: SF-539 CNS
SK-MEL-2 melanoma = tested on: SK-MEL-2 melanoma
SK-MEL-28 melanoma = tested on: SK-MEL-28 melanoma
SK-MEL-5 melanoma = tested on: SK-MEL-5 melanoma
SK-OV-3 ovarian = tested on: SK-OV-3 ovarian
SN12C renal = tested on: SN12C renal
SNB-19 CNS = tested on: SNB-19 CNS
SNB-75 CNS = tested on: SNB-75 CNS
SR leukemia = tested on: SR leukemia
SW-620 colon = tested on: SW-620 colon
T-47D breast = tested on: T-47D breast
TK-10 renal = tested on: TK-10 renal
U251 CNS = tested on: U251 CNS
UACC-257 melanoma = tested on: UACC-257 melanoma
UACC-62 melanoma = tested on: UACC-62 melanoma
UO-31 renal = tested on: UO-31 renal
HL-60(TB) leukemia = tested on: HL-60(TB) leukemia
HOP-92 NSCLC = tested on: HOP-92 NSCLC
HS 578T breast = tested on: HS 578T breast
HT29 colon = tested on: HT29 colon

## O=C(/C=C(\O)c1ccccc1)C(=O)NNc1ccc([N+](=O)[O-])cc1[N+](=O)[O-]
786-0 renal
  TGI: 25.9 µM
A498 renal
  TGI: 70.4 µM
A549 NSCLC
  TGI: 34.1 µM
ACHN renal
  TGI: 66.5 µM
BT-549 breast
  TGI: 48.2 µM
CAKI-1 renal
  TGI: 43.1 µM
CCRF-CEM leukemia
  TGI: 43.5 µM
COLO 205 colon
  TGI: 32.3 µM
DU-145 prostate
  TGI: 32.9 µM
EKVX NSCLC
  TGI: 56.3 µM
HCC-2998 colon
  TGI: 30 µM
HCT-116 colon
  TGI: 27.4 µM
HCT-15 colon
  TGI: 35.4 µM
HOP-62 NSCLC
  TGI: 37.8 µM
IGROV1 ovarian
  TGI: 38.2 µM
K-562 leukemia
  TGI: 95.1 µM
KM12 colon
  TGI: 33.7 µM
LOX IMVI melanoma
  TGI: 64.3 µM
M14 melanoma
  TGI: 31.3 µM
MALME-3M melanoma
  TGI: 82.4 µM
MCF7 breast
  TGI: > 100 µM
MDA-MB-231 breast
  TGI: 67.6 µM
MDA-MB-435
  TGI: > 100 µM
MDA-N
  TGI: 78.1 µM
MOLT-4 leukemia
  TGI: 38.3 µM
NCI-H226 lung
  TGI: 50.4 µM
NCI-H23 lung
  TGI: 47.2 µM
NCI-H460 lung
  TGI: 40.2 µM
NCI-H522 lung
  TGI: 82.4 µM
NCI/ADR-RES ovarian
  TGI: 36.6 µM
OVCAR-4 ovarian
  TGI: 95 µM
OVCAR-5 ovarian
  TGI: 58.7 µM
OVCAR-8 ovarian
  TGI: 53.6 µM
PC-3 prostate
  TGI: 44.9 µM
RPMI-8226 leukemia
  TGI: 82.4 µM
RXF 393 renal
  TGI: 35 µM
SF-268 CNS
  TGI: 37.8 µM
SF-295 CNS
  TGI: 29.8 µM
SF-539 CNS
  TGI: 33.5 µM
SK-MEL-2 melanoma
  TGI: > 100 µM
SK-MEL-28 melanoma
  TGI: 60.8 µM
SK-MEL-5 melanoma
  TGI: 60.1 µM
SK-OV-3 ovarian
  TGI: 41.6 µM
SN12C renal
  TGI: 31.8 µM
SNB-19 CNS
  TGI: 74.6 µM
SNB-75 CNS
  TGI: 30.9 µM
SR leukemia
  TGI: 43.6 µM
SW-620 colon
  TGI: 34 µM
T-47D breast
  TGI: 48.5 µM
TK-10 renal
  TGI: 49 µM
U251 CNS
  TGI: 28.1 µM
UACC-257 melanoma
  TGI: 99.8 µM
UACC-62 melanoma
  TGI: 31.1 µM
UO-31 renal
  TGI: 27.5 µM

## CN1CC[C@@]2(c3cccc(O)c3)CC(=O)/C(=C/c3ccccc3)[C@H]1C2
786-0 renal
  TGI: 25 µM
A498 renal
  TGI: 30.4 µM
A549 NSCLC
  TGI: 36.9 µM
ACHN renal
  TGI: 22.6 µM
BT-549 breast
  TGI: 26.7 µM
CAKI-1 renal
  TGI: 15.4 µM
CCRF-CEM leukemia
  TGI: > 27.7 µM
COLO 205 colon
  TGI: 30.3 µM
DU-145 prostate
  TGI: 29.3 µM
EKVX NSCLC
  TGI: 28.7 µM
HCC-2998 colon
  TGI: 25 µM
HCT-116 colon
  TGI: 12.5 µM
HCT-15 colon
  TGI: 41.2 µM
HL-60(TB) leukemia
  TGI: 7.73 µM
HOP-62 NSCLC
  TGI: 58.7 µM
HOP-92 NSCLC
  TGI: 31 µM
HS 578T breast
  TGI: 9.81 µM
HT29 colon
  TGI: 13.5 µM
IGROV1 ovarian
  TGI: 36.2 µM
K-562 leukemia
  TGI: 6.52 µM
KM12 colon
  TGI: > 30.4 µM
LOX IMVI melanoma
  TGI: 3.46 µM
M14 melanoma
  TGI: 30.4 µM
MALME-3M melanoma
  TGI: 33.5 µM
MCF7 breast
  TGI: 10.3 µM
MDA-MB-231 breast
  TGI: 23.6 µM
MDA-MB-435
  TGI: 13.9 µM
MDA-N
  TGI: 16.4 µM
MOLT-4 leukemia
  TGI: 6.21 µM
NCI-H226 lung
  TGI: 42.5 µM
NCI-H23 lung
  TGI: 46.4 µM
NCI-H460 lung
  TGI: 18.7 µM
NCI-H522 lung
  TGI: 20 µM
NCI/ADR-RES ovarian
  TGI: 24.5 µM
OVCAR-4 ovarian
  TGI: 22.2 µM
OVCAR-5 ovarian
  TGI: 32.2 µM
OVCAR-8 ovarian
  TGI: > 48 µM
PC-3 prostate
  TGI: 14.4 µM
RPMI-8226 leukemia
  TGI: 7.04 µM
RXF 393 renal
  TGI: 20.5 µM
SF-268 CNS
  TGI: 19.7 µM
SF-295 CNS
  TGI: 23.8 µM
SF-539 CNS
  TGI: 35.3 µM
SK-MEL-2 melanoma
  TGI: 87.2 µM
SK-MEL-28 melanoma
  TGI: 29 µM
SK-MEL-5 melanoma
  TGI: > 54.8 µM
SN12C renal
  TGI: 19.4 µM
SNB-19 CNS
  TGI: 19.5 µM
SNB-75 CNS
  TGI: 7.09 µM
SR leukemia
  TGI: 7.5 µM
SW-620 colon
  TGI: 10.1 µM
TK-10 renal
  TGI: 29.2 µM
U251 CNS
  TGI: 11.1 µM
UACC-257 melanoma
  TGI: 30.8 µM
UO-31 renal
  TGI: 25.5 µM
